Measurements reported in patent US11712434B2, “Compound having anti-cancer effect, and preparation method therefor and use thereof” (3D MEDICINES (BEIJING) CO., LTD., priority 2016, dated 2023).
Where “and” joins values, the source holds several entries; their conditions need not be identical. Equal values may be shown once. Entries after “also recorded” stand apart in the source; their conditions may differ.

What was measured:
[1] = Plasma stability study of compound 8 in rat plasma; assay type: in vitro ADME, SD rat; conditions: for Residual compound 8 concentration: 37° C., Repeat 1 and 2
Description: The purpose of this example was to investigate the stability of incubation of compound 8 in rat plasma (compound 8 was metabolized to form intermediate compound 12 and Linifanib, intermediate compound 12 was further metabolized to form Linifanib), and the metabolites were quantified and analyzed, and the stability of the incubation system was verified by a positive drug, which provided a reference for the evaluation of the drug-forming properties of the compound.
1. Instruments and Materials • Instrument: API3000 LC/MS, ABI • Materials: Male SD rats (200-250 g), Beijing Vital River • Test sample: positive drug and its metabolites M1 and M2, compound 8 and its metabolite compound 12 and Linifanib.
2. Compound 8 Plasma Stability Study • Test animal • Type: SD rat; Quantity: 2 • Sex: male; weight: 200-250 g;
Experimental Procedure • 1). Animal blood was collected, blood samples were placed in EDTA anticoagulation tubes, centrifuged at 3000 g for 15 min at 4° C., plasma was separated, and 2 blood samples were mixed in equal volumes; • 2). Weighed a certain amount of compound 8 and dissolved in DMSO:MeOH (2:8), prepared into 200 μM mother liquor by purity conversion, and added the compound to plasma to reach a final concentration of 1 μg/mL in plasma. The organic ratio in the system was not more than 0.5%. • 3). Incubated in a 37° C. water bath and set the sampling points to 0, 0.5, 1, 2, 4, 6, 8 h. At each sampling point, 100 μL of each sample was collected and 300 μL of acetonitrile (with internal standard) was added for precipitation, centrifuged at 12,000 rpm for 5 min, and 200 μL of supernatant was taken for analysis by LC-MS/MS. • 4). Configured the standard curve to quantify compound 8, compound 12 and Linifanib

[2] = test system: 26 liver cancer cell lines; experiment: Cell proliferation assay (Alamar Blue), liver cancer panel summary; assay type: cell-based; conditions: almost all liver cancer cells
Description: 1. Instruments and Materials • Thermo 311 CO2 incubator; Haier biosafety cabinet; Molecular Devices microplate reader; Xiangyi brand L530 desktop low speed centrifuge; Olympus IX51 inverted fluorescence microscope, DMEM, RPMI 1640, MEM, DMEM/F12 1:1 medium, Fetal bovine serum, 0.25% trypsin solution, phosphate buffer (Thermo Fisher Shanghai Co., Ltd.); sigma dimethyl sulfoxide (DMSO), resazurin; 54 commercial tumor cell lines (including 26 liver cancer cell lines). Experimental drugs: compounds 1-12 and active drug Linifanib; chemotherapeutic drug Doxorubicin (HY-15142; Shanghai Qianyuan Biomedical Technology Co., Ltd.).
2. […] The proportion and quantity of passage were determined by experimental needs. The ratio of subculture of this cell line was generally 1:2^˜1:3. • 2.2 Inhibition Effect on the Proliferation of Different Tumor Cell Lines • Cell test: 54 cell lines in logarithmic growth phase were inoculated in 96-well culture plates at 500^˜1×10^4/well (the optimal seeding density of each cell line was determined in pre-experiment), After incubating at 37° C. for 4 h in a 5% CO2 humidification incubator, added 10 μL of compounds 1-12 or Linifanib to each well, and tested 9 drug concentration gradients for each compound (diluted from the highest concentration of the test by 3.16 times). […]

SMILES | amount of Compound 12 and Linifanib produced by metabolism [1] | Residual compound 8 concentration ([1]; 0 h) | Residual compound 8 concentration ([1]; 0.5 h) | Residual compound 8 concentration ([1]; 1 h) | Residual compound 8 concentration ([1]; 2 h) | Residual compound 8 concentration ([1]; 4 h) | Residual compound 8 concentration ([1]; 6 h) | Residual compound 8 concentration ([1]; 8 h) | stability in plasma ([1]; up to 8 h) | response of liver cancer cells [2]
Cc1ccc(F)c(NC(=O)Nc2ccc(-c3cccc4[nH]nc(NC(=O)CCCCCCCCCCCNC(=O)C[C@H](N)C(=O)N[C@@H](CCC(=O)N[C@@H](CCC(=O)N[C@@H](CCC(=O)N[C@@H](CCC(=O)O)C(=O)O)C(=O)O)C(=O)O)C(=O)O)c34)cc2)c1 [Compound 8] | extremely small | 1200 ng/mL and 680 ng/mL | 1190 ng/mL and 1450 ng/mL | 1460 ng/mL and 1620 ng/mL | 960 ng/mL and 1040 ng/mL | 876 ng/mL and 868 ng/mL | 1110 ng/mL and 1190 ng/mL | 1200 ng/mL and 680 ng/mL | relatively stable; also recorded: very good | 
Cc1ccc(F)c(NC(=O)Nc2ccc(-c3cccc4[nH]nc(NC(=O)CCCCCCCCCCCNC(=O)C[C@H](N)C(=O)O)c34)cc2)c1 [Compound 12] |  |  |  |  |  |  |  |  |  | did not respond
